Assay results published in US6808904B2, “Herbicide-tolerant protox genes produced by DNA shuffling” (priority 1994, dated 2004).

Experiments:
[1] = test system: Arabidopsis line expressing AraC-2Ile+AraC305Leu; experiment: Cross tolerance in a seed germination assay, homozygous Arabidopsis line with AraC-2Ile+AraC305Leu; type: in vivo, Arabidopsis thaliana; conditions: AraC-2Ile+AraC305Leu line vs wt
Experimental: Using the procedure described above, an Arabidopsis protox-1 cDNA containing a TAC to ATG (Tyrosine to Methionine) change at nucleotides 1306-1308 in the protox-1 sequence (SEQ ID NO:1) was fused to the native protox-1 promoter fragment and transformed into Arabidopsis thaliana. […] Seed from the vacuum infiltrated plants was collected and plated on a range (10.0 nM-1.0 uM) of a protox inhibitory aryluracil herbicide of formula XVII. Multiple experiments with wild type Arabidopsis have shown that a 10.0 nM concentration of this compound is sufficient to prevent normal seedling germination. Transgenic seeds expressing the AraC-2Met altered enzyme fused to the native protox-1 promoter produced normal Arabidopsis seedlings at herbicide concentrations up to 500 nM, indicating at least 50-fold higher herbicide tolerance when compared to wild-type Arabidopsis. This promoter/altered protox enzyme fusion therefore functions as an effective selectable marker for plant transformation. Several of the plants that germinated on 100.0 nM of protox-inhibiting herbicide were transplanted to soil, grown 2-3 weeks, and tested in a spray assay with various concentrations of the protox-inhibiting herbicide. When compared to empty vector control transformants, the AraPT1Pro/AraC-2Met transgenics were >10-fold more tolerant to the herbicide spray.
Using the procedure described above, an Arabidopsis protox-1 cDNA containing both a TAC to ATC (tyrosine to isoleucine) change at nucleotides 1306-1308 and a TCA to TTA (serine to leucine) change at nucleotides 945-947 in the protox-1 sequence (SEQ ID NO:1) was fused to the native protox-1 promoter fragment and transformed into Arabidopsis thaliana.

[2] = molecular target: T1, plant protox mutants (MzC-1Val, maize protox-1) in SASX38 (Arabidopsis thaliana, UniProt P55826, A220V/A252T/A259N/A262P/A292S/A82G/A83V/D204A/D323E/D487E/D93A/DEL80-81/E103P/E263P/E288N/E311D/E351S/E499D/F107Y/F178L/F250I/F483L/G171P/G277A/G306S/G313K/G344N/G441S/H340Y/I100T/I174L/I370V/I421V/I485L/I71T/I87L/INS101VE/K237R/K257S/K359R/K388Q/K457N/K465V/K78R/K92R/L137F/L159P/L310S/L325V/L345I/L360F/L436V/L86V/M122V/N105E/N149E/N241T/N258K/N316V/N355D/N459T/N85D/P266A/P418D/P458S/P84G/Q240E/Q272K/R284A/R293S/S186P/S291T/S305T/S312D/S330A/S352D/S369T/S430A/S439T/S460A/S491A/S492A/S495R/S496G/T141N/T160A/T318E/T379K/T397S/T461V/T488A/T494D/T56K/V126A/V334I/V337I/V95P); experiment: Bacterial cross-tolerance testing of resistant mutant plasmids in SASX38, maize protox-1 mutant; type: cell-based; conditions: mutant MzC-1Val vs WT plasmid in SASX38
T1 construct: expressed in transfected cells; host or cells: E. coli SASX38 (hemG mutant)
T1 sequence (P55826 other isoform, or with tags, fused parts or gaps with the stated changes): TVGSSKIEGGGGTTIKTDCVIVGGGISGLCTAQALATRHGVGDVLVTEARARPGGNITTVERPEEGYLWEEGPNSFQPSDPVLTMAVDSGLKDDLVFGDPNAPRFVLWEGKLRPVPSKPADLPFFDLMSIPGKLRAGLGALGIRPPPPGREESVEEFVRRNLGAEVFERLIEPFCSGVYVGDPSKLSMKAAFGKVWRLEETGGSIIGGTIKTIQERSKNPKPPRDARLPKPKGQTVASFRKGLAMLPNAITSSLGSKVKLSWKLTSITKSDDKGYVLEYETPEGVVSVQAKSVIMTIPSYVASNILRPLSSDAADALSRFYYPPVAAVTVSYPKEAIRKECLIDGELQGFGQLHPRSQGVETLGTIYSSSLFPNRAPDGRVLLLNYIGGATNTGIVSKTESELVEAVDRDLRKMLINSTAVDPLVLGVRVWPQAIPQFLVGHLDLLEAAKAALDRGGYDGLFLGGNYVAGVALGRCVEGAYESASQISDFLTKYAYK
Experimental: (§1) Resistant mutant plasmids, originally identified based on resistance against a single protox inhibitory herbicide, were tested against a spectrum of other protox inhibiting compounds. For this test, the SASX38 strain containing the wild-type plasmid is plated on a range of concentrations of each compound to determine the lethal concentration for each one. Resistant mutant plasmids in SASX38 are plated and scored for the ability to survive on a concentration of each compound at least 10 fold higher than the concentration that is lethal to the SASX38 strain containing the wild-type plasmid.

[3] = test system: plant protox mutants (Arabidopsis protox-1) in SASX38; experiment: Bacterial cross-tolerance testing of resistant mutant plasmids in SASX38, Arabidopsis protox-1 mutants; type: cell-based; set-up: key to Cross tolerance, AraC-1Val / Cross tolerance, AraC-2Cys / Cross tolerance, AraC-1Thr / Cross tolerance, AraC-3Thr / Cross tolerance, AraC-2Ile / Cross tolerance, AraC-2Cys + AraC425Ser: + = 10× or more tolerant than WT; ++ = 100× or more tolerant than WT; − = no cross tolerance; conditions: mutant AraC-3Thr vs WT plasmid in SASX38
Experimental: as §1

[4] = molecular target: T2, plant protox mutants (Arabidopsis protox-1) in SASX38 (Arabidopsis thaliana, UniProt P55826, A220T/T56K); experiment: as above; type: cell-based; set-up: key to Cross tolerance, AraC-1Val / Cross tolerance, AraC-2Cys / Cross tolerance, AraC-1Thr / Cross tolerance, AraC-3Thr / Cross tolerance, AraC-2Ile / Cross tolerance, AraC-2Cys + AraC425Ser: + = 10× or more tolerant than WT; ++ = 100× or more tolerant than WT; − = no cross tolerance; conditions: mutant AraC-1Thr vs WT plasmid in SASX38
T2 construct: contains only 17 amino acids of the putative chloroplast transit peptide; expressed in transfected cells; host or cells: E. coli SASX38 (hemG mutant)
T2 sequence (P55826 41-537 T56K/A220T): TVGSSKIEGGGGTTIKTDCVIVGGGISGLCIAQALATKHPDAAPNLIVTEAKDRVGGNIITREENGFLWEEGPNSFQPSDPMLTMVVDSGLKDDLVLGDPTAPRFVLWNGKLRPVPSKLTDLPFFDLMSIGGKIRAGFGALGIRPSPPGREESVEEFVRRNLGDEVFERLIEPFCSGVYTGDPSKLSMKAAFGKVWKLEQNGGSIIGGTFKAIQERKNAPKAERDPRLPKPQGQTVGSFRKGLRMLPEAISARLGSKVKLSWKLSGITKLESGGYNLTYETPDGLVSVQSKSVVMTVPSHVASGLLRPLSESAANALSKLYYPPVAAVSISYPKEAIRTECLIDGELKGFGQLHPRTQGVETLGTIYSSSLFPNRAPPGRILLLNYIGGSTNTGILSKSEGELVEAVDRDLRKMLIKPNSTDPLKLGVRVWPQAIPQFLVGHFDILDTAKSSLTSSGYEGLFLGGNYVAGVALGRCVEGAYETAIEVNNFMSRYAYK
Experimental: as §1

[5] = molecular target: T3, plant protox mutants (Arabidopsis protox-1) in SASX38 (Arabidopsis thaliana, UniProt P55826, T56K/Y426C); experiment: as above; type: cell-based; set-up: key to Cross tolerance, AraC-1Val / Cross tolerance, AraC-2Cys / Cross tolerance, AraC-1Thr / Cross tolerance, AraC-3Thr / Cross tolerance, AraC-2Ile / Cross tolerance, AraC-2Cys + AraC425Ser: + = 10× or more tolerant than WT; ++ = 100× or more tolerant than WT; − = no cross tolerance; conditions: mutant AraC-2Cys vs WT plasmid in SASX38
T3 construct: contains only 17 amino acids of the putative chloroplast transit peptide; expressed in transfected cells; host or cells: E. coli SASX38 (hemG mutant)
T3 sequence (P55826 41-537 T56K/Y426C): as the sequence (P55826 41-537 T56K/A220T) above, with T180A, Y386C counted along it
Experimental: as §1

[6] = molecular target: T4, plant protox mutants (Arabidopsis protox-1) in SASX38 (Arabidopsis thaliana, UniProt P55826, A220V/T56K); experiment: as above; type: cell-based; set-up: key to Cross tolerance, AraC-1Val / Cross tolerance, AraC-2Cys / Cross tolerance, AraC-1Thr / Cross tolerance, AraC-3Thr / Cross tolerance, AraC-2Ile / Cross tolerance, AraC-2Cys + AraC425Ser: + = 10× or more tolerant than WT; ++ = 100× or more tolerant than WT; − = no cross tolerance; conditions: mutant AraC-1Val vs WT plasmid in SASX38
T4 construct: contains only 17 amino acids of the putative chloroplast transit peptide; expressed in transfected cells; host or cells: E. coli SASX38 (hemG mutant)
T4 sequence (P55826 41-537 T56K/A220V): as the sequence (P55826 41-537 T56K/A220T) above, with T180V counted along it
Experimental: as §1

maize protox-1 mutants = experiment: Mutant screens of maize protox-1 (pMut-3) in the E. coli system; type: cell-based; conditions: screen on this herbicide
Experimental: The pMut-3 plasmid was transformed into the mutator XL1-Red strain as described above and the mutated DNA was isolated and plated on a herbicide concentration (formula XVII) that was lethal to the unmutagenized pMut-3 maize protox gene. Herbicide tolerant colonies were isolated after two days at 37° C. and analyzed as described above. […] Three of these mutations correspond to amino acid changes previously shown to confer tolerance at the homologous position in the Arabidopsis protox-1 gene. Two of the three are pMzC-1Val and pMzC-1Thr, converting the alanine (GCT) at amino acid 164 (SEQ ID NO:6) to either valine ([…]) or to threonine (ACT). This position corresponds to the pAraC-1 mutations described above (see, Table 1B; sub-sequence 3). The third analogous change, pMzC-3Ser, converts the glycine (GGT) at amino acid 165 to Serine (AGT), corresponding to the AraC-3Ser mutation described above (see, Table 1B; sub-sequence 4).
Additional mutant screens performed as described earlier in this example, except using formulas XXIIIa and XXIIIb instead of XVII, identified three additional amino acid changes that confer tolerant protox enzymes. […]

[7] = molecular target: T5, plant protox mutants (Arabidopsis protox-1) in SASX38 (Arabidopsis thaliana, UniProt P55826, N425S/T56K/Y426L); experiment: Bacterial cross-tolerance testing of resistant mutant plasmids in SASX38, Arabidopsis protox-1 mutants; type: cell-based; set-up: key to Cross tolerance, AraC-1Val / Cross tolerance, AraC-2Cys / Cross tolerance, AraC-1Thr / Cross tolerance, AraC-3Thr / Cross tolerance, AraC-2Ile / Cross tolerance, AraC-2Cys + AraC425Ser: + = 10× or more tolerant than WT; ++ = 100× or more tolerant than WT; − = no cross tolerance; conditions: mutant AraC-2Leu + AraC425Ser
T5 construct: contains only 17 amino acids of the putative chloroplast transit peptide; expressed in transfected cells; host or cells: E. coli SASX38 (hemG mutant)
T5 sequence (P55826 41-537 T56K/N425S/Y426L): as the sequence (P55826 41-537 T56K/A220T) above, with T180A, N385S, Y386L counted along it
Experimental: as §1

[8] = molecular target: T6, plant protox mutants (Arabidopsis protox-1) in SASX38 (Arabidopsis thaliana, UniProt P55826, N425S/T56K/Y426M); experiment: as above; type: cell-based; set-up: key to Cross tolerance, AraC-1Val / Cross tolerance, AraC-2Cys / Cross tolerance, AraC-1Thr / Cross tolerance, AraC-3Thr / Cross tolerance, AraC-2Ile / Cross tolerance, AraC-2Cys + AraC425Ser: + = 10× or more tolerant than WT; ++ = 100× or more tolerant than WT; − = no cross tolerance; conditions: mutant AraC-2Met + AraC425Ser
T6 construct: contains only 17 amino acids of the putative chloroplast transit peptide; expressed in transfected cells; host or cells: E. coli SASX38 (hemG mutant)
T6 sequence (P55826 41-537 T56K/N425S/Y426M): as the sequence (P55826 41-537 T56K/A220T) above, with T180A, N385S, Y386M counted along it
Experimental: as §1

[9] = molecular target: T7, plant protox mutants (Arabidopsis protox-1) in SASX38 (Arabidopsis thaliana, UniProt P55826, N425S/T56K/Y426C); experiment: as above; type: cell-based; set-up: key to Cross tolerance, AraC-1Val / Cross tolerance, AraC-2Cys / Cross tolerance, AraC-1Thr / Cross tolerance, AraC-3Thr / Cross tolerance, AraC-2Ile / Cross tolerance, AraC-2Cys + AraC425Ser: + = 10× or more tolerant than WT; ++ = 100× or more tolerant than WT; − = no cross tolerance; conditions: mutant AraC-2Cys + AraC425Ser
T7 construct: contains only 17 amino acids of the putative chloroplast transit peptide; expressed in transfected cells; host or cells: E. coli SASX38 (hemG mutant)
T7 sequence (P55826 41-537 T56K/N425S/Y426C): as the sequence (P55826 41-537 T56K/A220T) above, with T180A, N385S, Y386C counted along it
Experimental: as §1

[10] = molecular target: T8, plant protox mutants (Arabidopsis protox-1) in SASX38 (Arabidopsis thaliana, UniProt P55826, A220L/T56K); experiment: as above; type: cell-based; set-up: key to Cross tolerance, AraC-1Val / Cross tolerance, AraC-2Cys / Cross tolerance, AraC-1Thr / Cross tolerance, AraC-3Thr / Cross tolerance, AraC-2Ile / Cross tolerance, AraC-2Cys + AraC425Ser: + = 10× or more tolerant than WT; ++ = 100× or more tolerant than WT; − = no cross tolerance; conditions: mutant AraC-1Leu
T8 construct: contains only 17 amino acids of the putative chloroplast transit peptide; expressed in transfected cells; host or cells: E. coli SASX38 (hemG mutant)
T8 sequence (P55826 41-537 T56K/A220L): as the sequence (P55826 41-537 T56K/A220T) above, with T180L counted along it
Experimental: as §1

CCOc1cc(Oc2ccc(C(F)(F)F)cc2Cl)ccc1[N+](=O)[O-] [IVc]
Tolerance [1]: + (+ ≧ 10× more tolerant than wt)

CCOC(=O)C(C)OC(=O)c1cc(Oc2ccc(C(F)(F)F)cc2Cl)ccc1[N+](=O)[O-] (stereo not shown) [IVd]
Tolerance [1]: ± (± ≦ 10× more tolerant than wt)

CC(Cl)C(=O)Nc1c([N+](=O)[O-])cnn1-c1c(Cl)cc(C(F)F)cc1Cl (stereo not shown) [XXIa]
Tolerance [1]: + (+ ≧ 10× more tolerant than wt)

CS(=O)(=O)NC(=O)c1cc(Oc2ccc(C(F)(F)F)cc2Cl)ccc1[N+](=O)[O-] [III]
Tolerance [1]: + (+ ≧ 10× more tolerant than wt)

CCOC(=O)COc1cc(-c2nn(C)c(OC(F)F)c2Cl)c(F)cc1Cl [XII]
Cross tolerance, MzC-1Val [2]: ++ (++ = 100× or more tolerant than WT)
Cross tolerance, AraC-3Thr [3]: ++ (++ = 100× or more tolerant than WT)
Cross tolerance, AraC-1Thr [4]: ++ (++ = 100× or more tolerant than WT)
Cross tolerance, AraC-2Cys [5]: −
Cross tolerance, AraC-1Val [6]: + (+ = 10× or more tolerant than WT)

Cn1nc(-c2c(F)cc(Cl)c(=O)n2C)c(Cl)c1OC(F)F [Formula XXIIIb]
tolerance of maize enzyme Mz88Cys (maize protox-1 mutants; arginine 88 to cysteine): highly tolerant

C#CCN1C(=O)COc2cc(F)c(N3C(=O)C4=C(CCCC4)C3=O)cc21 [XVI]
Cross tolerance, MzC-1Val [2]: + (+ = 10× or more tolerant than WT)
Cross tolerance, AraC-3Thr [3]: −
Cross tolerance, AraC-2Leu + AraC425Ser [7]: ++ (++ = 100× or more tolerant than WT)
Cross tolerance, AraC-1Thr [4]: −
Cross tolerance, AraC-2Met + AraC425Ser [8]: ++ (++ = 100× or more tolerant than WT)
Cross tolerance, AraC-2Cys + AraC425Ser [9]: + (+ = 10× or more tolerant than WT)
Cross tolerance, AraC-2Cys [5]: −
Cross tolerance, AraC-1Val [6]: −
Tolerance [1]: +++ (+++ ≧ 1000× more tolerant than wt)

Cc1nn(-c2cc(NS(C)(=O)=O)c(Cl)cc2Cl)c(=O)n1C(F)F [X]
Tolerance [1]: + (+ ≧ 10× more tolerant than wt)

COC(=O)c1cc(Oc2ccc(Cl)cc2Cl)ccc1[N+](=O)[O-] [IVb]
Tolerance [1]: + (+ ≧ 10× more tolerant than wt)

O=C([O-])c1cc(Oc2ccc(C(F)(F)F)cc2Cl)ccc1[N+](=O)[O-].[Na+] [II]
Tolerance [1]: + (+ ≧ 10× more tolerant than wt)

C#CC(C)Oc1cc(N2C(=O)C3=C(CCCC3)C2=O)c(F)cc1Cl (stereo not shown) [XV]
Cross tolerance, MzC-1Val [2]: + (+ = 10× or more tolerant than WT)
Cross tolerance, AraC-3Thr [3]: + (+ = 10× or more tolerant than WT)
Cross tolerance, AraC-1Thr [4]: + (+ = 10× or more tolerant than WT)
Cross tolerance, AraC-2Met + AraC425Ser [8]: ++ (++ = 100× or more tolerant than WT)
Cross tolerance, AraC-2Cys + AraC425Ser [9]: ++ (++ = 100× or more tolerant than WT)
Cross tolerance, AraC-2Cys [5]: + (+ = 10× or more tolerant than WT)
Cross tolerance, AraC-1Val [6]: + (+ = 10× or more tolerant than WT)
Cross tolerance, AraC-1Leu [10]: ++ (++ = 100× or more tolerant than WT)

Cn1nc(-c2ncc(Cl)cc2F)c(Cl)c1OC(F)F [Formula XXIIIa]
tolerance of maize enzyme Mz347Ser453Thr (maize protox-1 mutants; double mutant): highly tolerant
